The values that follow come from patent publication US20090081197A1 (Palatin Technologies, Inc., priority 2007, published 2009).

Where two headings read alike, the source gives them in different places. Positions of bridges follow the written chain, without caps; N, C: chain ends. Non-standard residues stand in square brackets, D forms with d. Residues, ends and D or L forms follow the SMILES beside them. *: point of attachment. Acetyl(2-naphthyl) = O=C(Cc1ccc2ccccc2c1)*; dPhe(4-Cl) = N[C@H](Cc1ccc(Cl)cc1)C(=O)O; 1Nal = N[C@@H](Cc1cccc2ccccc12)C(=O)O; 2Nal = N[C@@H](Cc1ccc2ccccc2c1)C(=O)O; d2Nal = N[C@H](Cc1ccc2ccccc2c1)C(=O)O; Ac6c = NC1(C(=O)O)CCCCC1; Nle = CCCC[C@H](N)C(=O)O

For assay [1], the target named is T1, MC4-R (Homo sapiens, UniProt P32245). Put plainly: cAMP agonist stimulation, high receptor density system (10 ng/mL doxycycline).
T1 sequence (P32245 whole entry): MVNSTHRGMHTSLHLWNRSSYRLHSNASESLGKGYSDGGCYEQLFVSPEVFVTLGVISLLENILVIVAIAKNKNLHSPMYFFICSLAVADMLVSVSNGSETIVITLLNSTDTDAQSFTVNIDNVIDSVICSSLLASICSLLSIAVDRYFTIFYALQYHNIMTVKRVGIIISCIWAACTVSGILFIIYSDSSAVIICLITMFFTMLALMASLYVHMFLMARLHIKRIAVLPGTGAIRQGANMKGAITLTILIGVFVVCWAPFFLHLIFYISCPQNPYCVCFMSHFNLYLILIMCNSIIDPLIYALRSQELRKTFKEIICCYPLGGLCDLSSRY
Assay [2] concerns the target T1, MC4-R. Kind of assay: Competitive inhibition assay using [I^125]-NDP-α-MSH, hMC4-R membranes. The assay is classed as binding. Details: host or cells: TREx-293 (HEK-293 stably expressing Tet repressor). Conditions: for inhibition at 1 µM: read-out: Inhibition at 1 μM (NDP-α-MSH) In Normal System, MC4-R; for Ki: read-out: Ki (nM) (NDP-α-MSH) In Normal System, MC4-R. The procedure: (§1) The ligand concentration used was 0.4 nM for MC3-R and MC5-R, 0.2 nM for MC4-R and 0.1 nM for B16-F10 (MC1-R) membranes. In certain experiments, hMC1-R was also employed.
(§2) The assay mixture was incubated for 90 minutes at room temperature, then filtered and the membranes washed three times with ice cold buffer. The filter was dried and counted in a gamma counter for remaining radioactivity bound to the membranes. […] Each assay was conducted in triplicate and the actual mean values are described, with results less than 0% reported as 0%.

The target of a further assay is T2, MC1-R (Mus musculus, UniProt Q01727).
T2 construct: B-16 mouse melanoma cells (containing MC1-R); endogenous in cells
T2 sequence (Q01727 whole entry): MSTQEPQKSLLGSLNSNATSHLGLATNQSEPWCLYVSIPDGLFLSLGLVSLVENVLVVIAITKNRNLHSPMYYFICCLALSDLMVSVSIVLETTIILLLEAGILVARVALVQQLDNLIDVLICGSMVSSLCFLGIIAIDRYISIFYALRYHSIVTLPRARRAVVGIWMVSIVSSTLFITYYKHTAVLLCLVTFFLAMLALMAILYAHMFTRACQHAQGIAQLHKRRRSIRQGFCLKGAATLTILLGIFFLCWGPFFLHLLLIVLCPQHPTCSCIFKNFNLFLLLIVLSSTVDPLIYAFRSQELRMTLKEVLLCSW
Kind of assay: Competitive inhibition assay using [I^125]-NDP-α-MSH, B-16 mouse melanoma cell membranes. The assay is classed as binding. Conditions: read-out: Inhibition at 1 μM (NDP-α-MSH) In Normal System, MC1-R. On the procedure:
as §1, §2

In another assay the target is MC5-R (Homo sapiens, UniProt P33032). Kind of assay: Competitive inhibition assay using [I^125]-NDP-α-MSH, hMC5-R membranes. The assay is classed as binding. On the set-up: expressed in transfected cells. Conditions: for inhibition at 1 µM: read-out: Inhibition at 1 μM (NDP-α-MSH) In Normal System, MC5-R. The procedure: as §1, §2
Sequence of MC5-R (P33032 whole entry): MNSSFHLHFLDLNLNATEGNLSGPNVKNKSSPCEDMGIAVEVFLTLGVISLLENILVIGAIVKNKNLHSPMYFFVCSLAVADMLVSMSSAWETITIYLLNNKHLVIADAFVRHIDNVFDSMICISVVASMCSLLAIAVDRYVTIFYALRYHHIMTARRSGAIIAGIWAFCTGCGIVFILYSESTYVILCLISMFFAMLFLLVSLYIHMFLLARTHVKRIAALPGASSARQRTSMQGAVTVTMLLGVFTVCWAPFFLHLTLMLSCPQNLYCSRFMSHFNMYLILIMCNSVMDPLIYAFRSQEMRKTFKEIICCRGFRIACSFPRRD
The next assay addresses MC3-R (Homo sapiens, UniProt P41968). Kind of assay: Competitive inhibition assay using [I^125]-NDP-α-MSH, hMC3-R membranes. The class given is binding. Details: expressed in transfected cells. Conditions: read-out: Inhibition at 1 μM (NDP-α-MSH) In Normal System, MC3-R. On the procedure:
as §1, §2

For assay [3], the target named is T1, MC4-R. Kind of assay: cAMP functional activity assay in HEK-293 cells, normal system. Details: expressed in transfected cells; host or cells: HEK-293. The class given is cell-based. The procedure: General method for EC50 determination in functional activity assay. […] Data analysis and EC50 values were determined using nonlinear regression analysis with Prism Graph-Pad software.
Functional status. The agonist/antagonist status with respect to MC1-R, MC-3R, MC4-R and MC5-R of certain compounds of the invention was determined. Antagonistic activity was determined by measuring the inhibition of α-MSH-induced or NDP-α-MSH-induced cAMP levels following exposure to graded doses of compounds as in the preceding descriptions.
Assay for agonist. Evaluation of the molecules to elicit a functional response in HEK-293 cells expressing MC4-R was accomplished by measuring the accumulation of intracellular cAMP following treatment. Confluent HEK-293 cells expressing MC4-R receptors were detached by enzyme free cell suspension buffer. […] The cells were plated in a 96 well plates at a density of 0.5×10^5 cells per well and pre-incubated for 30 minutes. Test compounds (dissolved in dimethylsulfoxide (DMSO) at a concentration range of 0.05-5000 nM) were added in a total assay volume of 200 μL and cells were incubated for 1 hour at 37° C. The concentration of DMSO was always held at 1% in the assay mixture. NDP-α-MSH was used as the reference agonist. […] Data analysis and EC50 values were determined by using nonlinear regression analysis with Prism Graph-Pad software. […] Compounds with a response ratio of less than 0.1 (10%) were evaluated for antagonistic activity.

Assay [4] deals with T1, MC4-R. Kind of assay: cAMP agonist stimulation, low receptor density system (0.1 ng/mL doxycycline).
Assay [5] is described as follows: ICV food intake and body weight change. The class given is in vivo. Conditions: rat, 1 nmol, 24 hours. On the procedure: ICV food intake and body weight change. Change in food intake and body weight was evaluated for selected compounds. Rats with indwelling intracerebroventricular cannulas (ICV rats) were obtained from Hilltop Lab Animals, Inc. (Scottdale, Pa.). Animals were individually housed in conventional plexiglass hanging cages and maintained on a controlled 12 hour on/off light cycle. Water and powdered (LabDiet, 5P00 Prolab RMH 3000) or pelleted (Harlan Teklad 2018 18% Protein Rodent Diet) food was provided ad libitum. For 1 week before treatment, 24-hour food intake and body weight change was recorded to assess a baseline for the group during vehicle treatment. The rats were dosed ICV with vehicle or selected compounds (1-3 nmol). The changes in body weight and food intake for the 24 hour period after dosing were determined. The changes in body weight and food intake for the 48 hour and 72 hour periods after dosing were also measured to determine reversal of changes in body weight and food intake effects back to baseline levels.

Assay [6] in a line: Penile erection induction in male rats. The class given is in vivo. Conditions: rat. The procedure: Penile erection induction. The ability of compounds to induce penile erection (PE) in male rats was evaluated with selected compounds. Male Sprague-Dawley rats weighing 200-250 g were kept on a 12 hour on/off light cycle with food and water ad libitum. All behavioral studies were performed between 10 A.M. and 5 P.M. Groups of 4-8 rats were treated with compounds at a variety of doses via intravenous (IV) or intracerebroventricular (ICV) routes. Immediately after treatment, rats were placed into individual polystyrene cages (27 cm long, 16 cm wide, and 25 cm high) for behavioral observation. […] Controls utilized carrier without the test compound. Mean PEs in control groups were 0.17 to 0.5 PEs/rat by IV administration in various experiments and between 1-2 PEs/rat by ICV administration in various experiments, and thus only PEs with statistically relevant increases over the mean PEs in control groups are reported as inducing PEs. A PE response in IV animals greater than the mean PEs in control groups but less than 1.0 PEs/rat, particularly with less than all animals responding, was treated as equivocal, and not necessarily distinguishable from vehicle control. In selected instances, compounds with equivocal results in the IV model were tested for penile response in an ICV model, and compounds without a statistically relevant increase over the mean PEs in ICV control groups were determined to not induce PEs.

Sequence of MC3-R (P41968 whole entry): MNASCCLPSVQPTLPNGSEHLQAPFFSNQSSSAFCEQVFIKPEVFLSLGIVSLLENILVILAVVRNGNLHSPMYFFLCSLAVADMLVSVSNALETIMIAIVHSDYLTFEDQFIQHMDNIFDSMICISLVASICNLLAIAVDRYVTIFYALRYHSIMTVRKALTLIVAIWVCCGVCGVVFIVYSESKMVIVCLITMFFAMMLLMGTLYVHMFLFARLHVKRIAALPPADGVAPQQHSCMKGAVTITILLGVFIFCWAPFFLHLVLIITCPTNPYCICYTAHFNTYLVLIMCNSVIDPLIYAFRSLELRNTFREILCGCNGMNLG

A word on the EC50: it is the concentration needed to bring the measured effect to its halfway point. The low end stands for higher potency in that assay, the high end for lower potency in that assay. Regarding `C[C@H](NC(=O)[C@H](CCCNC(=N)N)NC(=O)[C@@H](Cc1ccc(Cl)cc1)NC(=O)[C@H](COCc1ccccc1)NC(=O)CCCCCCN)c1cccc2ccccc12` [Example 16, 7′-amino-heptanoyl-Ser(Bzl)-D-Phe(4-Cl)-Arg-S-(−)-1-(1-naphthyl)ethylamide], the concentration giving a half-maximal response (EC50) on MC4-R [1] is 180 nM.
By inhibition is commonly meant the share of the control response that was lost under treatment. The Ki is the equilibrium dissociation constant of an inhibitor or competing ligand from its target. In the case of `CCCC[C@H](NC(C)=O)C(=O)N[C@H]1CC(=O)NCCCC[C@@H](C(=O)NCC)NC(=O)[C@H](Cc2cccc3ccccc23)NC(=O)[C@H](CCCNC(=N)N)NC(=O)[C@@H](Cc2ccccc2)NC(=O)[C@H](Cc2c[nH]c3ccccc23)NC1=O` [Example 38, Ac-Nle-cyclo(-Asp-Trp-D-Phe-Arg-Nal 1-Lys)-NH—CH2—CH3] (Ac-[Nle]DW[dF]R[1Nal]K-NHEt; lactam 2-7), the inhibition at 1 µM at MC4-R [2] (1 μM test compound) was determined as 100%; on MC1-R (1 μM test compound) it was 98%; at MC5-R (1 μM test compound) it was 92%; at MC3-R (1 μM test compound), 92%. The Ki on MC4-R [2] amounted to 9 nM. At MC4-R [1], this compound had a 50% effective concentration (EC50) of 10 nM.
Consider `CNC(=O)[C@@H]1CCCCNC(=O)C[C@H](NC(C)=O)C(=O)N[C@@H](Cc2c[nH]c3ccccc23)C(=O)N[C@H](Cc2ccc3ccccc3c2)C(=O)N[C@@H](CCCNC(=N)N)C(=O)N[C@@H](Cc2ccc3ccccc3c2)C(=O)N1` [Example 35, Ac-cyclo(Asp-Trp-D-Nal 2-Arg-Nal 2-Lys)-NH—CH3] (Ac-DW[d2Nal]R[2Nal]K-NHMe; lactam 1-6), for which the inhibition at 1 µM at MC4-R [2] was determined as 100%; at MC1-R it was 67%; at MC5-R it was 98%; at MC3-R, 99%. Besides, the “functional status at MC4-R in cAMP assay” value on MC4-R [3] (at 1 nM dose) was “inactive”.
With `CCCC[C@H](NC(C)=O)C(=O)N[C@H]1CC(=O)NCCCC[C@@H](C(=O)N(C)C)NC(=O)[C@H](Cc2cccc3ccccc23)NC(=O)[C@H](CCCNC(=N)N)NC(=O)[C@@H](Cc2ccccc2)NC(=O)[C@H](Cc2c[nH]cn2)NC1=O` [Example 37, Ac-Nle-cyclo(-Asp-His-D-Phe-Arg-Nal 1-Lys)-N(CH3)2], the inhibition at 1 µM at MC4-R [2] (1 μM test compound) stood at 100%; at MC1-R (1 μM test compound) it was 82%; at MC5-R (1 μM test compound) it was 92%; on MC3-R (1 μM test compound) it was 92%. Moreover, the Ki at MC4-R [2] is 5 nM. The results for the EC50 at MC4-R [4] and on MC4-R [1] were 2.1 nM and 0.6 nM, respectively.
Consider `CCCC[C@H](NC(C)=O)C(=O)N[C@H]1CC(=O)NCCCC[C@@H](C(=O)N(C)C)NC(=O)[C@H](Cc2cccc3ccccc23)NC(=O)[C@H](CCCNC(=N)N)NC(=O)[C@@H](Cc2ccccc2)NC(=O)[C@H](Cc2c[nH]c3ccccc23)NC1=O` [Example 36, Ac-Nle-cyclo(-Asp-Trp-D-Phe-Arg-Nal 1-Lys)-N(CH3)2] (Ac-[Nle]DW[dF]R[1Nal]K-NMe2; lactam 2-7), for which the inhibition at 1 µM at MC4-R [2] (1 μM test compound) came out at 99%; at MC1-R (1 μM test compound) it was 71%; on MC5-R (1 μM test compound), 92%; on MC3-R (1 μM test compound), 83%. Also, the Ki at MC4-R [2] turned out to be 38 nM. Further, the EC50 on MC4-R [1] came to 4 nM.
In the case of `N=C(N)NCCC[C@H](NC(=O)[C@@H](Cc1ccc(Cl)cc1)NC(=O)C1(NC(=O)Cc2ccc3ccccc3c2)CCCCC1)C(=O)N[C@@H](Cc1c[nH]c2ccccc12)C(N)=O` [Example 24, 2-naphthylacetyl-1-amino-1-cyclohexane-carbonyl-D-Phe(4-Cl)-Arg-Trp-NH2] ({Acetyl(2-naphthyl)}-[Ac6c][dPhe(4-Cl)]RW-NH2), the “decrease in body weight” value in assay [5] worked out at 1%. For the same compound, the “decrease in food intake” value in assay [5] turned out to be 21%. For the same compound, the “Efficacy/Intrinsic Activity” value at MC4-R [4] (0.1 ng/mL doxycycline, low receptor density hMC4-R system, NDP-α-MSH maximal cAMP = 1.0) is reported as “None”; on MC4-R [1] (10 ng/mL doxycycline, high receptor density hMC4-R system, NDP-α-MSH maximal cAMP = 1.0) it was “None”. The “intrinsic activity at MC4-R in a normal system” value at MC4-R [3] (normal receptor density system, NDP-α-MSH = 1.0) turned out to be 0.2. For the same compound, on MC4-R [3] (normal system, 1 μM concentration where stated), the “functional status at MC4-R in cAMP assay” value is “partial agonist (intrinsic activity between 0.1 (10%) and 0.7 (70%) is classified as a partial agonist)”.
Turning to `CCNC(=O)[C@@H]1CCCCNC(=O)C[C@H](NC(C)=O)C(=O)N[C@@H](Cc2c[nH]cn2)C(=O)N[C@H](Cc2ccccc2)C(=O)N[C@@H](CCCNC(=N)N)C(=O)N[C@@H](Cc2c[nH]c3ccccc23)C(=O)N1` [Example 40, Ac-cyclo(-Asp-His-D-Phe-Arg-Trp-Lys)-NH—CH2—CH3], the inhibition at 1 µM came to 96% at MC4-R [2] (1 μM test compound), 96% at MC1-R (1 μM test compound), 16% at MC5-R (1 μM test compound) and 65% on MC3-R (1 μM test compound). The Ki was 6 nM on MC4-R [2] and greater than 1000 nM at MC5-R (read-out: Ki (nM) (NDP-α-MSH) In Normal System, MC5-R). Besides, the EC50 on MC4-R [4] is 3.1 nM; at MC4-R [3] (normal receptor density system), 3 nM; on MC4-R [1], 0.5 nM.
Consider `CCCC[C@H](NC(C)=O)C(=O)N[C@H]1CC(=O)NCCCC[C@@H](C(=O)NCC)NC(=O)[C@H](Cc2cccc3ccccc23)NC(=O)[C@H](CCCNC(=N)N)NC(=O)[C@@H](Cc2ccccc2)NC(=O)[C@H](Cc2c[nH]cn2)NC1=O` [Example 39, Ac-Nle-cyclo(-Asp-His-D-Phe-Arg-Nal 1-Lys)-NH—CH2—CH3], for which the inhibition at 1 µM stood at 98% at MC4-R [2] (1 μM test compound), 100% on MC1-R (1 μM test compound), 93% at MC5-R (1 μM test compound) and 93% at MC3-R (1 μM test compound). In addition, the Ki at MC4-R [2] was 2 nM. The EC50 at MC4-R [4] turned out to be 10 nM; on MC4-R [1], 1.1 nM.
Consider `CCCC[C@H](NC(C)=O)C(=O)N[C@H]1CC(=O)NCCCC[C@@H](C(=O)O)NC(=O)[C@H](Cc2c[nH]c3ccccc23)NC(=O)[C@H](CCCNC(=N)N)NC(=O)[C@@H](Cc2ccccc2)NC(=O)[C@H](Cc2c[nH]cn2)NC1=O` [PT-141, cyclo 2,7[Ac-Nle-Asp-His-D-Phe-Arg-Trp-Lys]-OH, reference compound], for which the “Penile Erection ICV” value in assay [6] (ICV) is listed as “Yes**”. Also, in assay [6] (IV), the “Penile Erection IV” value was “Yes**”.
